One data set has as its system B/Florida/04/2006. As to the kind of experiment: Antiviral activity (drug efficacy evaluation by concentration) against B/Florida/04/2006. In kind it is cell-based, B type influenza virus.
The test system of data set [1] is A/California/07/2009 (H1N1). As to the kind of experiment: Antiviral activity (drug efficacy evaluation by concentration) against A/California/07/2009 (H1N1). Conditions: Influenza A virus. The format is cell-based, A type influenza virus.
For another data set, the system named is A/Perth/16/2009 (H3N2). As to the kind of experiment: Antiviral activity (drug efficacy evaluation by concentration) against A/Perth/16/2009 (H3N2). The format is cell-based, A type influenza virus. Conditions: Influenza A virus.
The mark [2] stands for this setting: read-out: EC50 B/Florida/04/2006, B/Florida/04/2006.
Where [3] appears, read: H1N1, A/California/07/2009 (H1N1), read-out: EC50 A/California/07/2009 (H1N1).
Setting [4] is: H3N2, A/Perth/16/2009 (H3N2), read-out: EC50 A/Perth/16/2009 (H3N2).
[5] abbreviates: CC50 B/Florida/04/2006, cytotoxicity in the B/Florida/04/2006 assay.
[6] abbreviates: CC50, third EC50/CC50 column pair (c7), beside the EC50 of c6.

SMILES strings stand for the structures. Like-named read-outs stand apart in the source and are kept apart here.

For the compound `FC(F)(c1ccc(Br)cc1)c1nnc(SCc2ccccc2-c2ccccc2)o1` [Compound 74, 2-(([1,1′-biphenyl]-2-ylmethyl)thio)-5-((4-bromophenyl)difluoromethyl)-1,3,4-oxadiazole], the EC50 in the data set on B/Florida/04/2006 (setting [2]) was greater than 50 µM; in data set [1] (setting [3]) it was 21.2 µM; in the data set with A/Perth/16/2009 (H3N2) (setting [4]), 11 µM. In the data set “in vitro” (setting [5]), the CC50 was greater than 50 µM.

In the case of `Cc1ccccc1CCSc1nnc(Cn2nc(C)c(Br)c2C)o1` [Compound 26, 2-((4-bromo-3,5-dimethyl-1H-pyrazol-1-yl)methyl)-5-((2-methylphenethyl)thio)-1,3,4-oxadiazole], the EC50 was 36.2 µM in the data set on B/Florida/04/2006 (setting [2]), 31.2 µM in data set [1] (setting [3]) and 29.4 µM in the data set with A/Perth/16/2009 (H3N2) (setting [4]). The compound also yielded a CC50 in the data set “in vitro” (setting [5]) greater than 50 µM.

With `CC(c1ccccc1)c1nnc(SCc2ccccc2-c2ccccc2)o1` (stereo not shown) [Compound 73, 2-(([1,1′-biphenyl]-2-ylmethyl)thio)-5-(1-phenylethyl)-1,3,4-oxadiazole], the EC50 is greater than 50 µM with B/Florida/04/2006 (setting [2]), 17.2 µM in data set [1] (setting [3]) and 41.7 µM in the data set on A/Perth/16/2009 (H3N2) (setting [4]). The same compound gave a CC50 in “in vitro” (setting [5]) greater than 50 µM.

Turning to `Cc1ccc(F)c(Cc2nnc(/C=C/c3ccccc3C(C)C)o2)c1` [Compound 173, 2-(2-fluoro-5-methylbenzyl)-5-(2-isopropylstyryl)-1,3,4-oxadiazole], the EC50 in the data set with B/Florida/04/2006 turned out to be 1.91 µM; in data set [1] (H1N1, read-out: EC50) it was 1.77 µM; with A/Perth/16/2009 (H3N2) (H3N2, read-out: EC50), 1.71 µM. Further, the CC50 was 13.5 µM in “in vitro” (CC50, beside the EC50 of c2); 12.6 µM in “in vitro” (CC50, beside the EC50 of c4); 15.8 µM in the data set “in vitro” (setting [6]).

On to `Brc1ccc(Cc2nnc(CCc3ccccc3-c3ccccc3)o2)cc1` [Compound 119, 2-(2-([1,1′-biphenyl]-2-yl)ethyl)-5-(4-bromobenzyl)-1,3,4-oxadiazole], for which the EC50 is greater than 50 µM with B/Florida/04/2006; greater than 50 µM in data set [1] (H1N1, read-out: EC50); greater than 50 µM with A/Perth/16/2009 (H3N2) (H3N2, read-out: EC50). The CC50 in “in vitro” (CC50, beside the EC50 of c2) was greater than 50 µM; in the data set “in vitro” (CC50, beside the EC50 of c4) it was greater than 50 µM; in “in vitro” (setting [6]) it was greater than 50 µM.

Regarding `COc1ccccc1/C=C/c1nnc(Cc2cccc(Br)c2)o1` [Compound 210, 2-(3-bromobenzyl)-5-(2-methoxystyryl)-1,3,4-oxadiazole], the EC50 was 36.2 µM in the data set on B/Florida/04/2006; 47.3 µM in data set [1] (H1N1, read-out: EC50); 23.5 µM in the data set on A/Perth/16/2009 (H3N2) (H3N2, read-out: EC50). The CC50 in the data set “in vitro” (CC50, beside the EC50 of c2) came to 48.1 µM; in “in vitro” (CC50, beside the EC50 of c4), 48.1 µM; in the data set “in vitro” (setting [6]), 46.8 µM.

With `Cc1nn(Cc2nnc(SCc3ccccc3-c3ccccc3)o2)c(C)c1Br` [Compound 1, 2-(([1,1′-biphenyl]-2-ylmethyl)thio)-5-((4-bromo-3,5-dimethyl-1H-pyrazol-1-yl)methyl)-1,3,4-oxadiazole], the EC50 worked out at 0.98 µM in the data set on B/Florida/04/2006 (setting [2]), 0.77 µM in data set [1] (setting [3]) and 1.15 µM in the data set on A/Perth/16/2009 (H3N2) (setting [4]). In “in vitro” (setting [5]), this compound displayed a CC50 of 41.3 µM.

As for `CC(C)c1ccccc1/C=C/c1nnc(C(C)c2ccccc2)o1` (stereo not shown) [Compound 147, 2-(2-isopropylstyryl)-5-(1-phenylethyl)-1,3,4-oxadiazole], the EC50 came to 4.4 µM in the data set on B/Florida/04/2006; 6 µM in data set [1] (H1N1, read-out: EC50); 6 µM in the data set with A/Perth/16/2009 (H3N2) (H3N2, read-out: EC50). The CC50 in “in vitro” (CC50, beside the EC50 of c2) was greater than 50 µM; in “in vitro” (CC50, beside the EC50 of c4), greater than 50 µM; in “in vitro” (setting [6]) it was greater than 50 µM.

On to `Cc1nn(Cc2nnc(SCc3ccccc3-c3ccoc3)o2)c(C)c1Br` [Compound 34, 2-((4-bromo-3,5-dimethyl-1H-pyrazol-1-yl)methyl)-5-((2-(furan-3-yl)benzyl)thio)-1,3,4-oxadiazole], for which the EC50 with B/Florida/04/2006 (setting [2]) came out at 4.48 µM; in data set [1] (setting [3]), 1.4 µM; with A/Perth/16/2009 (H3N2) (setting [4]) it was 1.8 µM. Also, the CC50 in “in vitro” (setting [5]) was determined as 22.8 µM.

Consider `CC(C)c1ccccc1CCc1nnc(Cc2cccc(Cl)c2)o1` [Compound 102, 2-(3-chlorobenzyl)-5-(2-isopropylphenethyl)-1,3,4-oxadiazole], for which the EC50 in the data set with B/Florida/04/2006 was 2.14 µM; in data set [1] (H1N1, read-out: EC50) it was 1.7 µM; with A/Perth/16/2009 (H3N2) (H3N2, read-out: EC50), 1.5 µM. The CC50 was 47.7 µM in “in vitro” (CC50, beside the EC50 of c2); greater than 50 µM in “in vitro” (CC50, beside the EC50 of c4); greater than 50 µM in the data set “in vitro” (setting [6]).

Turning to `Cc1nn(Cc2nnc(S(=O)(=O)Cc3ccccc3-c3ccccc3)o2)c(C)c1Br` [Compound 96, 2-(([1,1′-biphenyl]-2-ylmethyl)sulfonyl)-5-((4-bromo-3,5-dimethyl-1H-pyrazol-1-yl)methyl)-1,3,4-oxadiazole], the EC50 with B/Florida/04/2006 worked out at 1.03 µM; in data set [1] (H1N1, read-out: EC50), 1.3 µM; in the data set with A/Perth/16/2009 (H3N2) (H3N2, read-out: EC50), 1.3 µM. Moreover, the CC50 in the data set “in vitro” (CC50, beside the EC50 of c2) was greater than 50 µM; in “in vitro” (CC50, beside the EC50 of c4), greater than 50 µM; in the data set “in vitro” (setting [6]), greater than 50 µM.

On to `Brc1ccc(Nc2nnc(/C=C/c3ccccc3Br)o2)cc1` [Compound 83, (E)-N-(4-bromophenyl)-5-(2-bromostyryl)-1,3,4-oxadiazol-2-amine], for which the EC50 stood at 4.63 µM in the data set with B/Florida/04/2006; 4.25 µM in data set [1] (H1N1, read-out: EC50); 4.75 µM in the data set with A/Perth/16/2009 (H3N2) (H3N2, read-out: EC50). Further, the CC50 in the data set “in vitro” (CC50, beside the EC50 of c2) was greater than 50 µM; in the data set “in vitro” (CC50, beside the EC50 of c4), greater than 50 µM; in “in vitro” (setting [6]), greater than 50 µM.

Regarding `CC(C)c1ccc(Cc2nnc(/C=C/c3ccccc3C(C)C)o2)cc1` [Compound 133, 2-(4-isopropylbenzyl)-5-(2-isopropylstyryl)-1,3,4-oxadiazole], the EC50 in the data set with B/Florida/04/2006 is 1.97 µM; in data set [1] (H1N1, read-out: EC50), 2.66 µM; in the data set with A/Perth/16/2009 (H3N2) (H3N2, read-out: EC50) it was 1.4 µM. Besides, the CC50 was greater than 50 µM in the data set “in vitro” (CC50, beside the EC50 of c2); greater than 50 µM in the data set “in vitro” (CC50, beside the EC50 of c4); greater than 50 µM in “in vitro” (setting [6]).

As to `CC(C)c1ccccc1CCc1nnc(Cc2cccc(Br)c2)o1` [Compound 101, 2-(3-bromobenzyl)-5-(2-isopropylphenethyl)-1,3,4-oxadiazole], the EC50 with B/Florida/04/2006 is 36.5 µM; in data set [1] (H1N1, read-out: EC50), 45.3 µM; in the data set with A/Perth/16/2009 (H3N2) (H3N2, read-out: EC50) it was 45.5 µM. The CC50 is greater than 50 µM in “in vitro” (CC50, beside the EC50 of c2); greater than 50 µM in the data set “in vitro” (CC50, beside the EC50 of c4); greater than 50 µM in the data set “in vitro” (setting [6]).

Turning to `Cc1nn(Cc2nnc(/C=C/c3ccccc3C(C)C)o2)c(C)c1Br` [Compound 50, (E)-2-((4-bromo-3,5-dimethyl-1H-pyrazol-1-yl)methyl)-5-(2-isopropylstyryl)-1,3,4-oxadiazole], the figures for the EC50 (with B/Florida/04/2006 (setting [2]); in data set [1] (setting [3]); in the data set with A/Perth/16/2009 (H3N2) (setting [4])) were 24.5 µM, 18.7 µM and 11.4 µM, respectively. The same compound showed a CC50 in “in vitro” (setting [5]) greater than 50 µM.

As to `Brc1ccc(Cc2nnc(SCc3ccccc3-c3ccccc3)o2)cc1` [Compound 22, 2-(([1,1′-biphenyl]-2-ylmethyl)thio)-5-(4-bromobenzyl)-1,3,4-oxadiazole], the values for the EC50 (with B/Florida/04/2006 (setting [2]); in data set [1] (setting [3]); with A/Perth/16/2009 (H3N2) (setting [4])) were 4.88 µM, 4.9 µM and 5 µM, respectively. Besides, the CC50 in “in vitro” (setting [5]) was greater than 50 µM.

Turning to `CC(C)c1ccccc1CCc1nnc(Cc2ccc(Br)cc2)o1` [Compound 92, 2-(4-bromobenzyl)-5-(2-isopropylphenethyl)-1,3,4-oxadiazole], the EC50 in the data set with B/Florida/04/2006 was 6.59 µM; in data set [1] (H1N1, read-out: EC50), 7.17 µM; in the data set with A/Perth/16/2009 (H3N2) (H3N2, read-out: EC50), 6.42 µM. For the same compound, the CC50 in “in vitro” (CC50, beside the EC50 of c2) is greater than 50 µM; in “in vitro” (CC50, beside the EC50 of c4) it was greater than 50 µM; in “in vitro” (setting [6]) it was greater than 50 µM.

Consider `C/C(=C\c1ccccc1C)c1nnc(Cc2ccc(Br)cc2)o1` [Compound 144, 2-(4-bromobenzyl)-5-(1-(o-tolyl)prop-1-en-2-yl)-1,3,4-oxadiazole], for which the EC50 in the data set with B/Florida/04/2006 was greater than 50 µM; in data set [1] (H1N1, read-out: EC50), 48.7 µM; in the data set on A/Perth/16/2009 (H3N2) (H3N2, read-out: EC50) it was 49.3 µM. The CC50 in the data set “in vitro” (CC50, beside the EC50 of c2) was greater than 50 µM; in the data set “in vitro” (CC50, beside the EC50 of c4) it was greater than 50 µM; in “in vitro” (setting [6]) it was greater than 50 µM.
